pIC50: −log10 of the molar value.
How the values were obtained:
Mus musculus = assay: Tested for the antagonism of bicuculline -induced convulsions in female mice intraperitoneally; format: functional; conditions: ip, read-out: ID50 (the source's name)
[1] = molecular target: GABA-A receptor; anion channel; assay: Displacement of [3H]- muscimol in cerebellar tissue of male rats
Rattus norvegicus = species on record: Rattus norvegicus; assay: Tested for its GABA agonistic activity against spontaneous firing in explants from cerebellum of 2-4 day old rats; format: functional

Compound | ED50 (Mus musculus) [mg/kg] | pIC50 [1] | Decrease of spontaneous firing rate (Rattus norvegicus)
O=C1NOC2CNCCC12 (cis isomer) | > 56 | < 6.00 | –
Oc1noc2c1CCNC2 [GABOXADOL] | 1.9 | – | –
NCc1cc(O)no1 [MUSCIMOL] | 0.76 | 8.52 | >=1e-06 M

Reference: ChEMBL document CHEMBL1122920, “Synthesis and pharmacological evaluation of cis-2,3,3a,4,5,6,7,7a-octahydro-3-oxoisoxazolo[5,4-c]pyridine: a structural analogue of the GABA agonist THIP” (J Med Chem, 1985)
